Results from paper PMC11203576 (International Journal of Molecular Sciences, 2024).

Biological target: MVL (rMVL) (Microcystis viridis, UniProt Q9RHG4)
Type: binding

Chain of MVL (rMVL) (Q9RHG4 2-114 limits assumed): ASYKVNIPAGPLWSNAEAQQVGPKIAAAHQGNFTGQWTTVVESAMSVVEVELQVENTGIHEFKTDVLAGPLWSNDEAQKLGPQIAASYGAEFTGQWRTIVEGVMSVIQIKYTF

OC[C@H]1OC(O)[C@H](O)[C@@H](O)[C@H]1O (stereo partly shown) [galactose]
% SPR signal retained at 100 mM: ~ 40%
